# Assay results: patent US20240041042A1, “1-(PYRIDYL)-5-AZINYLPYRAZOLE DERIVATIVES, AND THEIR USE FOR CONTROL OF UNDESIRED PLANT GROWTH” (Bayer Aktiengesellschaft, priority 2020, published 2024)
# Tests used:
# Assay type in all cases: in vivo
# [1] = tested on: Matricaria inodora (MATIN); test: Post-emergence herbicidal action against MATIN; details: dosage 320 g/ha
# Summary of the method: (§1)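 Values are percent visual activity (0% like control, 100% plants dead) after about 3 weeks in the greenhouse. Treatment: post-emergence spray at one-leaf stage, 600 l/ha spray volume, 0.5% additive, doses 320 g/ha or lower.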
# [2] = tested on: Matricaria inodora (MATIN); test: Pre-emergence herbicidal action against MATIN
# Summary of the method: (§2)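 Application rates ran to 320 g/ha or lower, with several dosages tested on the same weeds. The compound, as wettable powder or emulsion concentrate, is sprayed pre-emergence onto soil over sown seeds; greenhouse growth follows, and effect is rated visually after roughly 3 weeks.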
# [3] = tested on: Verconica persica (VERPE); test: Post-emergence herbicidal action against VERPE
# Summary of the method: as §1
# [4] = tested on: Alopecurus myosuroides (ALOMY); test: Post-emergence herbicidal action against ALOMY; details: visual rating about 3 weeks after treatment vs untreated controls (100% = plants have died, 0% = like control plants)
# Summary of the method: as §1
# Avena fatua (AVEFA) [5] = test: Pre-emergence herbicidal action against AVEFA; details: visual scoring after about 3 weeks vs untreated controls
# Summary of the method: as §2
# Setaria viridis (SETVI) [6] = test: Post-emergence herbicidal action against SETVI
# Summary of the method: as §1
# [7] = tested on: Amaranthus retroflexus (AMARE); test: Pre-emergence herbicidal action against AMARE; details: visual scoring after about 3 weeks vs untreated controls
# Summary of the method: as §2
# [8] = tested on: Polygonum convolvulus (POLCO); test: Post-emergence herbicidal action against POLCO
# Summary of the method: as §1
# [9] = tested on: Echinochloa crus-galli (ECHCG); test: Post-emergence herbicidal action against ECHCG
# Summary of the method: as §1
# Viola tricolor (VIOTR) [10] = test: Post-emergence herbicidal action against VIOTR
# Summary of the method: as §1
# [11] = tested on: Pharbitis purpurea (PHBPU); test: Pre-emergence herbicidal action against PHBPU
# Summary of the method: as §2
# [12] = tested on: Polygonum convolvulus (POLCO); test: Pre-emergence herbicidal action against POLCO
# Summary of the method: as §2
# Setaria viridis (SETVI) [13] = test: Pre-emergence herbicidal action against SETVI
# Summary of the method: as §2
# Avena fatua (AVEFA) [14] = test: Post-emergence herbicidal action against AVEFA; details: visual rating about 3 weeks after treatment
# Summary of the method: as §1
# Lolium rigidum (LOLRI) [15] = test: Post-emergence herbicidal action against LOLRI
# Summary of the method: as §1
# [16] = tested on: Alopecurus myosuroides (ALOMY); test: Pre-emergence herbicidal action against ALOMY; details: scored visually after about 3 weeks, 100% = plants have died
# Summary of the method: as §2
# [17] = tested on: Abutilon theophrasti (ABUTH); test: Pre-emergence herbicidal action against ABUTH; details: 100% = plants have died
# Summary of the method: as §2
# Viola tricolor (VIOTR) [18] = test: Pre-emergence herbicidal action against VIOTR
# Summary of the method: as §2
# Lolium rigidum (LOLRI) [19] = test: Pre-emergence herbicidal action against LOLRI
# Summary of the method: as §2
# [20] = tested on: Echinochloa crus-galli (ECHCG); test: Pre-emergence herbicidal action against ECHCG
# Summary of the method: as §2
# [21] = tested on: Verconica persica (VERPE); test: Pre-emergence herbicidal action against VERPE
# Summary of the method: as §2
# [22] = tested on: Pharbitis purpurea (PHBPU); test: Post-emergence herbicidal action against PHBPU
# Summary of the method: as §1
# [23] = tested on: Amaranthus retroflexus (AMARE); test: Post-emergence herbicidal action against AMARE
# Summary of the method: as §1
# [24] = tested on: Abutilon theophrasti (ABUTH); test: Post-emergence herbicidal action against ABUTH; details: visual rating about 3 weeks after treatment vs untreated controls (100% = plants have died, 0% = like control plants)
# Summary of the method: as §1
# [25] = 80 g/ha, scored visually after about 3 weeks vs untreated controls, 0% = like control plants
# [26] = Dosage column 320 g/ha (title prints 3200 g/ha), scored visually after about 3 weeks
# [27] = 80 g/ha, visual rating about 3 weeks after treatment vs untreated controls (100% = plants have died, 0% = like control plants)
# [28] = 320 g/ha, visual rating about 3 weeks after treatment
structure (smiles),measurement,setting,value
COC(=O)CCOC(=O)[C@@H](C)Oc1nn(-c2ccccn2)c(-c2cncc(F)c2)c1Cl [Example I-196],Post-emergence action against MATIN in %,[1],80%
same,Pre-emergence action against MATIN in %,[2]; dosage 80 g/ha,90%
same,Pre-emergence action against MATIN in %,[2]; dosage 320 g/ha,90%
same,Post-emergence action against VERPE in %,"[3]; 320 g/ha, VERPE",90%
same,Post-emergence action against VERPE in %,[3]; dosage 80 g/ha,80%
same,Post-emergence action against ALOMY in %,[4]; 80 g/ha,80%
same,Post-emergence action against ALOMY in %,[4]; 320 g/ha,90%
same,Pre-emergence action against AVEFA in %,Avena fatua (AVEFA) [5]; 80 g/ha,80%
same,Pre-emergence action against AVEFA in %,Avena fatua (AVEFA) [5]; 320 g/ha,90%
same,Post-emergence action against SETVI in %,Setaria viridis (SETVI) [6]; dosage 80 g/ha,80%
same,Post-emergence action against SETVI in %,Setaria viridis (SETVI) [6]; dosage 320 g/ha,80%
same,Pre-emergence action against AMARE in %,[7]; 80 g/ha,100%
same,Pre-emergence action against AMARE in %,[7]; 320 g/ha,100%
same,Post-emergence action against POLCO in %,[8]; dosage 80 g/ha,80%
same,Post-emergence action against POLCO in %,[8]; dosage 320 g/ha,80%
same,Post-emergence action against ECHCG in %,[9]; dosage 80 g/ha,80%
same,Post-emergence action against ECHCG in %,[9]; dosage 320 g/ha,80%
same,Post-emergence action against VIOTR in %,Viola tricolor (VIOTR) [10]; 80 g/ha,80%
same,Post-emergence action against VIOTR in %,Viola tricolor (VIOTR) [10]; 320 g/ha,80%
same,Pre-emergence action against PHBPU in %,[11]; dosage 80 g/ha,90%
same,Pre-emergence action against PHBPU in %,[11]; dosage 320 g/ha,90%
same,Pre-emergence action against POLCO in %,[12]; dosage 80 g/ha,90%
same,Pre-emergence action against POLCO in %,[12]; dosage 320 g/ha,90%
same,Pre-emergence action against SETVI in %,Setaria viridis (SETVI) [13]; dosage 80 g/ha,90%
same,Pre-emergence action against SETVI in %,Setaria viridis (SETVI) [13]; dosage 320 g/ha,100%
same,Post-emergence action against AVEFA in %,Avena fatua (AVEFA) [14]; 80 g/ha,80%
same,Post-emergence action against AVEFA in %,Avena fatua (AVEFA) [14]; 320 g/ha,90%
same,Post-emergence action against LOLRI in %,Lolium rigidum (LOLRI) [15]; dosage 80 g/ha,90%
same,Post-emergence action against LOLRI in %,Lolium rigidum (LOLRI) [15]; dosage 320 g/ha,90%
same,Pre-emergence action against ALOMY,[16]; 320 g/ha,90%
same,Pre-emergence action against ABUTH,[17]; [25],80%
same,Pre-emergence action against ABUTH,[17]; [26],90%
same,Pre-emergence action against VIOTR in %,"Viola tricolor (VIOTR) [18]; 320 g/ha, Viola tricolor",100%
same,Pre-emergence action against VIOTR in %,Viola tricolor (VIOTR) [18]; dosage 80 g/ha,90%
same,Pre-emergence action against LOLRI in %,Lolium rigidum (LOLRI) [19]; dosage 80 g/ha,100%
same,Pre-emergence action against LOLRI in %,Lolium rigidum (LOLRI) [19]; dosage 320 g/ha,100%
same,Pre-emergence action against ECHCG in %,[20]; dosage 80 g/ha,90%
same,Pre-emergence action against ECHCG in %,[20]; dosage 320 g/ha,90%
same,Pre-emergence action against VERPE in %,[21]; dosage 80 g/ha,90%
same,Pre-emergence action against VERPE in %,[21]; dosage 320 g/ha,100%
same,Post-emergence action against PHBPU in %,[22]; dosage 80 g/ha,90%
same,Post-emergence action against PHBPU in %,[22]; dosage 320 g/ha,90%
same,Post-emergence action against AMARE in %,[23]; [27],80%
same,Post-emergence action against AMARE in %,[23]; [28],80%
same,Post-emergence action against ABUTH in %,[24]; 80 g/ha,80%
same,Post-emergence action against ABUTH in %,[24]; 320 g/ha,80%
C[C@@H](Oc1nn(-c2ccccn2)c(-c2cncc(F)c2)c1Cl)C(=O)O [Example I-218],Post-emergence action against MATIN in %,[1],80%
same,Pre-emergence action against MATIN in %,[2]; dosage 80 g/ha,90%
same,Pre-emergence action against MATIN in %,[2]; dosage 320 g/ha,100%
same,Post-emergence action against VERPE in %,"[3]; 320 g/ha, VERPE",80%
same,Post-emergence action against VERPE in %,[3]; dosage 80 g/ha,80%
same,Post-emergence action against ALOMY in %,[4]; 320 g/ha,90%
same,Pre-emergence action against AVEFA in %,Avena fatua (AVEFA) [5]; 80 g/ha,80%
same,Pre-emergence action against AVEFA in %,Avena fatua (AVEFA) [5]; 320 g/ha,90%
same,Post-emergence action against SETVI in %,Setaria viridis (SETVI) [6]; dosage 80 g/ha,80%
same,Post-emergence action against SETVI in %,Setaria viridis (SETVI) [6]; dosage 320 g/ha,80%
same,Pre-emergence action against AMARE in %,[7]; 80 g/ha,100%
same,Pre-emergence action against AMARE in %,[7]; 320 g/ha,100%
same,Post-emergence action against POLCO in %,[8]; dosage 320 g/ha,80%
same,Post-emergence action against ECHCG in %,[9]; dosage 80 g/ha,80%
same,Post-emergence action against ECHCG in %,[9]; dosage 320 g/ha,90%
same,Post-emergence action against VIOTR in %,Viola tricolor (VIOTR) [10]; 80 g/ha,80%
same,Post-emergence action against VIOTR in %,Viola tricolor (VIOTR) [10]; 320 g/ha,80%
same,Pre-emergence action against PHBPU in %,[11]; dosage 80 g/ha,90%
same,Pre-emergence action against PHBPU in %,[11]; dosage 320 g/ha,90%
same,Pre-emergence action against POLCO in %,[12]; dosage 80 g/ha,90%
same,Pre-emergence action against POLCO in %,[12]; dosage 320 g/ha,90%
same,Pre-emergence action against SETVI in %,Setaria viridis (SETVI) [13]; dosage 80 g/ha,90%
same,Pre-emergence action against SETVI in %,Setaria viridis (SETVI) [13]; dosage 320 g/ha,100%
same,Post-emergence action against AVEFA in %,Avena fatua (AVEFA) [14]; 80 g/ha,80%
same,Post-emergence action against AVEFA in %,Avena fatua (AVEFA) [14]; 320 g/ha,90%
same,Post-emergence action against LOLRI in %,Lolium rigidum (LOLRI) [15]; dosage 80 g/ha,80%
same,Post-emergence action against LOLRI in %,Lolium rigidum (LOLRI) [15]; dosage 320 g/ha,90%
same,Pre-emergence action against ALOMY,[16]; 80 g/ha,90%
same,Pre-emergence action against ALOMY,[16]; 320 g/ha,90%
same,Pre-emergence action against ABUTH,[17]; [25],80%
same,Pre-emergence action against ABUTH,[17]; [26],90%
same,Pre-emergence action against VIOTR in %,"Viola tricolor (VIOTR) [18]; 320 g/ha, Viola tricolor",100%
same,Pre-emergence action against VIOTR in %,Viola tricolor (VIOTR) [18]; dosage 80 g/ha,100%
same,Pre-emergence action against LOLRI in %,Lolium rigidum (LOLRI) [19]; dosage 80 g/ha,100%
same,Pre-emergence action against LOLRI in %,Lolium rigidum (LOLRI) [19]; dosage 320 g/ha,100%
same,Pre-emergence action against ECHCG in %,[20]; dosage 80 g/ha,90%
same,Pre-emergence action against ECHCG in %,[20]; dosage 320 g/ha,100%
same,Pre-emergence action against VERPE in %,[21]; dosage 80 g/ha,90%
same,Pre-emergence action against VERPE in %,[21]; dosage 320 g/ha,100%
same,Post-emergence action against PHBPU in %,[22]; dosage 80 g/ha,90%
same,Post-emergence action against PHBPU in %,[22]; dosage 320 g/ha,100%
same,Post-emergence action against AMARE in %,[23]; [27],80%
same,Post-emergence action against AMARE in %,[23]; [28],80%
same,Post-emergence action against ABUTH in %,[24]; 80 g/ha,80%
same,Post-emergence action against ABUTH in %,[24]; 320 g/ha,80%
